According to publication PMC8079033, “Design, synthesis, anticancer evaluation, and molecular modelling studies of novel tolmetin derivatives as potential VEGFR-2 inhibitors and apoptosis inducers” (Journal of Enzyme Inhibition and Medicinal Chemistry, 2021):

Legend:
[1] = target: T1, VEGFR-2 (KDR) (Homo sapiens, UniProt P35968); test: VEGFR-2 (KDR) Kinase Assay Kit (Kinase-Glo Max luminescence); type: biochemical; details: mean ± SD of three experiments
T1 construct: purchased 40325
Description: In brief, the master mixture (25 µl per well) was prepared and added to each well. 5 µl of inhibitor solution of each well labelled as “Test Inhibitor” was added. For the “Positive Control” and “Blank,” 5 µl of the same solution without inhibitor (Inhibitor buffer) was added. 3 ml of kinase buffer was prepared by mixing 600 µl of kinase buffer with 2400 µl water. To the wells designated as “Blank,” 20 µl of kinase buffer was added. The amount of VEGFR-2 required for the assay was calculated and the enzyme was diluted to 1 ng/µl with kinase buffer. The reaction was initiated by adding 20 µl of diluted VEGFR-2 enzyme to the wells designated “Positive Control” and “Test Inhibitor Control.” The mixtures were incubated at 30 °C for 45 min. After the 45 min, 50 µl of Kinase-Glo Max reagent was added to each well. The plate was incubated at room temperature for 15 min. Luminescence was measured using the microplate reader.

[2] = system: HUVECs; test: Wound healing assay (CytoSelect 24-well); type: cell-based, human; details: 72 h, 5b 2.4 µM, sunitinib 3.2 µM, control 97.03 ± 5.47
Description: Wound healing assay of compound 5b was evaluated using CytoSelect™ 24-Well Wound Healing Assay kit Catalog # CBA-120 according to manufacturer’s instructions. In brief, the 24-well plate wound healing inserts were allowed to warm up at room temperature for 10 minutes, then to each well, 500 µl of human umbilical vascular endothelial cells (HUVECs) suspension (1.0 × 10^6) in media containing 10% fetal bovine serum (FBS) was added. Cells were kept in a cell culture incubator until a monolayer form. Carefully the insert was removed from the well. The media were slowly aspirated and discarded from the wells. The wells were washed with media to remove dead cells and debris. Finally, the media were added to wells to keep cells hydrated, then wells were visualized under a light microscope. […] The percent closure of the cells into the wound field was measured.
One of the hallmarks of angiogenesis is cell migration, which happens in the earlier stages of the angiogenic cascade. A wound-healing assay was performed to investigate in vitro anti-angiogenic property of compound 5b.

[3] = system: HCT-15 cells; test: Cell cycle analysis by flow cytometry (PI); type: cell-based, human
Description: After treatment, the cells were washed twice with ice-cold phosphate buffer saline (PBS), collected by centrifugation, and fixed in ice-cold 70% (v/v) ethanol, washed with PBS, resuspended with 0.1 mg/ml RNase, stained with […] propidium iodide (PI), and analysed by flow cytometry using FACS Calibur (Becton Dickinson)[45]. The cell cycle distributions were calculated using Cell- Quest software (Becton Dickinson).
Anticancer agents exert their cytotoxic action by aborting cellular proliferation at certain checkpoints. These checkpoints are distinguishable phases in the cell cycle, whose suppression results in the termination of the cell proliferation. Cell cycle analysis employs flow cytometry to distinguish cells within the different cell cycle phases. […] Moreover, marked augmentation in the proportion of cells in the G0-G1 phase by 1.32-fold, and in the Sub-G1 phase by 18.7-fold, in comparison to the control (DMSO).

[4] = system: HCT-15 cells; test: Annexin V-FITC/PI apoptosis assay; type: cell-based, human
Description: Apoptosis was determined by staining the cells with Annexin V fluorescein isothiocyanate (FITC) and counterstaining with PI using the Annexin V-FITC/PI apoptosis detection kit (BD Biosciences, San Diego, CA) according to the manufacturer’s instructions. […] The cells then were collected by trypsinization and 0.5 × 10^6 cells were washed twice with PBS and stained with 5 µl Annexin V-FITC and 5 µl PI in 1 × binding buffer for 15 min at room temperature in the dark. Analyses were performed using FACS Calibur flow cytometer (BD Biosciences, San Jose, CA).
This clearly verifies that, cell death resulting from the antiproliferative action of the target tolmetin derivative 5b was attributable to physiological apoptosis.

[5] = system: caspase-3; test: Caspase-3 (active) ELISA in HCT-15 cells; type: cell-based, human
Description: The level of the apoptotic marker caspase-3 was assessed using Human Caspase-3 (active) ELISA Kit Catalog # KHO1091. The procedure of the used kit was done according to the manufacturer’s instructions. Allow all reagents to reach room temperature before use. Gently mix all liquid reagents prior to use. Add 100 µl of the standard diluent buffer to the zero standard wells. Add 100 µl of standards and controls or diluted samples to the appropriate microtiter wells. Incubate for 2 h at room temperature. […] Incubate for 1 h at room temperature. Add 100 µl anti-rabbit IgG HRP working solution to each well. Prepare the working dilution and incubate for 30 min at room temperature. Add 100 µl of stabilised chromogen to each well. The liquid in the wells will begin to turn blue. Incubate for 30 min at room temperature and in the dark. Add 100 µl of stop solution to each well. The solution in the wells should change from blue to yellow. Read the absorbance of each well at 450 nm. Read the plate within 2 h after adding the stop solution. Use a curve fitting software to generate the standard curve. Read the concentrations for unknown samples and controls from the standard curve.
(§1) The activation of caspases as caspase-3, caspase-8, and caspase-9 is responsible for apoptosis, particularly caspase-3 which is an effector caspase that has an important role in apoptosis. It is activated by one of the initiator caspases which results in the activation of certain enzymes responsible for the fragmentation of DNA[53]. Caspase-8 and -9 are initiator caspases that are responsible for caspase-3 activation.

[6] = system: caspase-8; test: Caspase-8 ELISA in HCT-15 cells; type: cell-based, human
Description: (§2) To measure caspase-8 and caspase-9 levels, DRG® Caspase-8 (human) (EIA-4863) ELISA and DRG® Caspase-9 (human) (EIA-4860) ELISA kits were used. Briefly, prepare cell extracts after induction of apoptosis. Resuspend the extracts in lysis buffer, incubate 60 min at room temperature, and centrifuge for 15 min. Wash the microwell strips with 400 µl wash buffer. Add 100 µl of sample diluent in duplicate to all standard wells. Add 100 µl of sample diluent in duplicate to the blank wells. Add 50 µl of sample diluent to the sample wells. Add 50 µl of each sample in duplicate to the sample wells. Add 50 µl of detection antibody to all wells and incubate at room temperature for 2 h. Add 100 µl of diluted anti-rabbit-IgG-HRP to all wells, including the blank wells. Pipette 100 µl of (3,3′,5,5′-Tetramethylbenzidine) TMB substrate solution to all wells and incubate at room temperature for about 15 min. Stop the enzyme reaction by pipetting 100 µl of stop solution into each well. Read absorbance of each microwell on a spectro-photometer using 450 nm. Determine the absorbance of both the samples and the standards.
as §1

[7] = system: caspase-9; test: Caspase-9 ELISA in HCT-15 cells; type: cell-based, human
Description: as §2, §1

T1 sequence (P35968 20-1356): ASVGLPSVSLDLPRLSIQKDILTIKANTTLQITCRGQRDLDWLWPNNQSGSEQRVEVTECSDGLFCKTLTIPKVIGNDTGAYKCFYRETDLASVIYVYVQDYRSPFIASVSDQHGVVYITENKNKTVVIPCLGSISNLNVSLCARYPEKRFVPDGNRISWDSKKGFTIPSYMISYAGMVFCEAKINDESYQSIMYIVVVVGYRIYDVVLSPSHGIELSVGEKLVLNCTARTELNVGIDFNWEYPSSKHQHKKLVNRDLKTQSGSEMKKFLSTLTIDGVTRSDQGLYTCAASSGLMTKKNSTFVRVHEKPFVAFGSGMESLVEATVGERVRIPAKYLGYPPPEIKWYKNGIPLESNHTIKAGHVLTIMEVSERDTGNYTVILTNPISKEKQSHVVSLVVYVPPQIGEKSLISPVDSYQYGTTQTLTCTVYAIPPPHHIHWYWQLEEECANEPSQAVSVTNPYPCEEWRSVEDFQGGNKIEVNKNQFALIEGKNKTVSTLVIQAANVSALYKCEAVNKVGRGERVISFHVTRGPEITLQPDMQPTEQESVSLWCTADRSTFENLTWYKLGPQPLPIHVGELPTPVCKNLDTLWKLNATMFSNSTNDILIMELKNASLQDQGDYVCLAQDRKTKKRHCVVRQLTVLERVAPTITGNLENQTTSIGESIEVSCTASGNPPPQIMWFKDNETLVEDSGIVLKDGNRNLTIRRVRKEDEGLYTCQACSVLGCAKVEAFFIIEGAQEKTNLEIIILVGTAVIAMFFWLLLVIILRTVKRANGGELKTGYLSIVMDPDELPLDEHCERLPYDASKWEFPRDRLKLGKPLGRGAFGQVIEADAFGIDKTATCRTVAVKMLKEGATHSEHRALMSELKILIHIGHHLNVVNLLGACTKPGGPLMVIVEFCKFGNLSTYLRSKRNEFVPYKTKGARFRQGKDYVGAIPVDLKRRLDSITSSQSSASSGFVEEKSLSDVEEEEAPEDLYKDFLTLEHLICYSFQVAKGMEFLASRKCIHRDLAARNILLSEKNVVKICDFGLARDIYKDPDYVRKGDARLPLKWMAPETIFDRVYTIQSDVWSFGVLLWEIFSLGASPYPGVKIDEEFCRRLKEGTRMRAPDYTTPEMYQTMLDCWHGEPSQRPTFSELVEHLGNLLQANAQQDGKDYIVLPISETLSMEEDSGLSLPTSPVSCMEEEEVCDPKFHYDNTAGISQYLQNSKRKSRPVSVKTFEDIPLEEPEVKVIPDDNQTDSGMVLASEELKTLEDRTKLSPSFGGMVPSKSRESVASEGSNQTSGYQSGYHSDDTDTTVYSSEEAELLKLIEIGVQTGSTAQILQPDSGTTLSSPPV

With `Cc1ccc(C(=O)c2ccc(CC(=O)NN=Cc3cccc(O)c3O)n2C)cc1` [Compound 5b, N′-(2,3-Dihydroxybenzylidene)-2–(1-methyl-5–(4-methylbenzoyl)-1H-pyrrol-2-yl) acetohydrazide] the IC50 [1] was 0.2 ± 0.02 µM, the Wound closure percentage [2] was 51.85 ± 2.92% and the “augmentation in the proportion of cells in the G0-G1 phase” value ([3]; 6.62 µM, vs control (DMSO)) was 1.32 fold. For the same compound, the “decline in the cell population at the G2/M phase” value ([3]; 6.62 µM, vs control (DMSO)) was 65.61%, the “decline in the cell population at the S phase” value ([3]; 6.62 µM, vs control (DMSO)) was 16.88% and the “%Pre-G1” value ([3]; IC50 concentration (6.62 µM), 24 h, control 1.46) was 37.29%. The “%G2/M” value ([3]; IC50 concentration (6.62 µM), 24 h, control 6.95) was 2.39%, the “%G0–G1” value ([3]; IC50 concentration (6.62 µM), 24 h, control 41.69) was 54.92% and the “%S” value ([3]; IC50 concentration (6.62 µM), 24 h, control 51.36) was 42.69%. The “Apoptosis Late” value ([4]; IC50 concentration, 24 h, control 0.13) was 22.12%, the “Apoptosis Early” value ([4]; IC50 concentration, 24 h, control 0.34) was 2.66% and the “Apoptosis Total” value ([4]; IC50 concentration, 24 h, control 0.47) was 24.78%. For the same compound, the Necrosis ([4]; IC50 concentration, 24 h, control 0.99) was 12.51%, the “increase in the total apoptosis percentage” value ([4]; vs control (DMSO)) was 52.72 fold and the Caspase-3 ([5]; mean ± SD of three experiments, control 0.073 ± 0.01) was 0.570 ± 0.01 ng/mL. The “increase in the level of caspase-3” value ([5]; vs control) was 7.808 fold, the Caspase-8 ([6]; mean ± SD of three experiments, control 0.377 ± 0.03) was 0.704 ± 0.06 ng/mL and the “increase in the level of caspase-8” value ([6]; vs control) was 1.867 fold. For the same compound, the Caspase-9 ([7]; mean ± SD of three experiments, control 3.225 ± 0.44) was 24.58 ± 0.82 ng/mL and the “increase in the level of caspase-9” value ([7]; vs control) was 7.622 fold.
